From patent US9700058B2, “Dispersion and detachment of cell aggregates” (priority 2011, dated 2017)
Positions of bridges follow the written chain, without caps; N, C: chain ends. No end group written: not given here.

Tests used:
Type in all cases: cell-based
[1] = tested on: Candida albicans (ATCC14053); experiment: Biofilm prevention, crystal violet, 96-well plate; settings: added simultaneously, 24 h, 37° C.
Experimental: (§1) The peptides depicted in Table 1 (each with a cysteine attached to the N- and C-terminus of the peptides) were synthesized using solid-phase methods and were purified to 90% (Peptron, Inc.; Taejeon, South Korea). The peptides were dissolved in 20 μl dimethyl sulfoxide and diluted in double distilled water to a concentration of 10 mg/ml. Additional dilutions were performed in phosphate buffered saline (PBS).
(§2) The ability of these peptides to prevent microbial adhesion to a surface or detach microbial adhesion from a surface were measured against the following microbial strains: Pseudomonas aeruginosa (ATCC27853), Staphylococcus aureus (ATCC25923), Candida albicans (ATCC14053) and Acinetobacter baumannii (clinical isolate). […]
(§3) Biofilms of the foregoing microorganisms were grown in a 96-well found-bottom polystyrene plate. Specifically, 180 μl of overnight cultures were added to the wells with 20 μl of each peptide diluted in PBS, either simultaneously to measure prevention or after a period of time to measure detachment from 4 hours up to 24 hours post incubation. After 24 hours of incubation at 37° C., each well was washed with water and stained with 250 μl of crystal violet solution. The crystal violet solution was then removed by thoroughly washing the wells with water. To quantify the number of bacteria cells attached to the wells, the crystal violet was solubilized in 250 μl of 1% sodium dodecyl sulfate and the absorbance was measured at 595 nm.
(§4) The ability of these peptides to (1) prevent microbial adhesion to a surface and to (2) detach microbes already adhered to a surface were measured against the following microbial strains: Pseudomonas aeruginosa (ATCC27853), Staphylococcus aureus (ATCC25923), Candida albicans (ATCC14053) and/or Escherichia coli. The resulting percentage of prevention or detachment, relative to control wells in which the microbes was allowed to culture in the absence of peptides, are indicated in FIGS. 13 to 16.

[2] = tested on: Pseudomonas aeruginosa (ATCC27853); experiment: Biofilm prevention, crystal violet, 96-well plate; settings: added simultaneously, 24 h, 37° C.
Experimental: as §1, §2, §3, §4

[3] = tested on: Candida albicans (ATCC14053); experiment: Biofilm detachment, crystal violet, 96-well plate; settings: peptide 100 ng/ml, added after adhesion
Experimental: as §1
(§5) The ability of these peptides to prevent microbial adhesion to a surface or detach microbial adhesion from a surface were measured against the following microbial strains: Pseudomonas aeruginosa (ATCC27853), Staphylococcus aureus (ATCC25923), Candida albicans (ATCC14053) and Acinetobacter baumannii (clinical isolate). Specifically, peptides diluted to concentrations of 100 ng/ml were incubated with the foregoing microbes for 24 hours.
as §3, §4

[4] = tested on: Pseudomonas aeruginosa (ATCC27853); experiment: Biofilm detachment, crystal violet, 96-well plate; settings: peptide 100 ng/ml, added after adhesion
Experimental: as §1, §5, §3, §4

[5] = tested on: Staphylococcus aureus (ATCC25923); experiment: Biofilm detachment, crystal violet, 96-well plate; settings: peptide 100 ng/ml, added after adhesion
Experimental: as §1, §5, §3, §4

[6] = tested on: Staphylococcus aureus (ATCC25923); experiment: Biofilm prevention, crystal violet, 96-well plate; settings: peptide 100 ng/ml, added simultaneously, 24 h, 37° C.
Experimental: as §1, §5, §3, §4

[7] = tested on: Acinetobacter baumannii (clinical isolate); experiment: Biofilm prevention, crystal violet, 96-well plate; settings: added simultaneously, 24 h, 37° C.
Experimental: as §1, §2, §3

[8] = tested on: Acinetobacter baumannii (clinical isolate); experiment: Biofilm detachment, crystal violet, 96-well plate; settings: peptide 100 ng/ml, added after adhesion
Experimental: as §1, §5, §3

[9] = tested on: Pseudomonas aeruginosa (ATCC 27853); experiment: Detachment of pre-formed biofilm from a well (Examples 1-7); settings: different concentrations
Experimental: A biofilm was created by incubating Pseudomonas aeruginosa (ATCC 27853) overnight in wells at 37° C., allowing the microorganism to attach to the well surface. Eqt2Z-cyc peptide [Custom Peptide Synthesis; Peptron, Korea] at different concentrations was subsequently added to the wells and allowed to incubate overnight. The P.a. control was Pseudomonas aeruginosa alone.
(§6) A biofilm was created by culturing Pseudomonas aeruginosa (ATCC 27853) for 2 hours in a well at 37° C. Eqt2Z-cyc peptide at different concentrations was subsequently added to the well and allowed to incubate overnight. The Abac10-cyc peptide served as a negative control. The P.a. control was Pseudomonas aeruginosa alone.
as §6, with “for 24 hours.” for “overnight.”, “alone. […] Staining was performed with crystal violet at OD 595 nm.” for “alone.”
A biofilm was created by culturing Pseudomonas aeruginosa (ATCC 27853) for 2 hours in a well at 37° C. grZ14s-nvCyc peptide [Custom Peptide Synthesis; Peptron, Korea] at different concentrations was subsequently added to the well and allowed to incubate for 24 hours. The Abac10-cyc peptide served as a negative control. The P.a. control was Pseudomonas aeruginosa alone. […] Staining was performed with crystal violet at OD 595 nm.
(§7) A biofilm was created by culturing Pseudomonas aeruginosa (ATCC 27853) for 24 hours in a well at 37° C. Eqt2Z-cyc peptide at different concentrations was subsequently added to the well and allowed to incubate for 24 hours. The Abac10-cyc peptide served as a negative control. The P.a. control was Pseudomonas aeruginosa alone. […] Staining was performed with crystal violet at OD 595 nm.
as §7, with “grZ14s-nvCyc” for “Eqt2Z-cyc”
A biofilm was created by culturing Pseudomonas aeruginosa (ATCC 27853) for 24 hours in a well at 37° C. PhyscoZ-Cyc peptide [Custom Peptide Synthesis; Peptron, Korea] at different concentrations was subsequently added to the well and allowed to incubate for 24 hours. The P.a. control was Pseudomonas aeruginosa alone. […] Staining was performed with crystal violet at OD 595 nm.

[10] = 24-hour biofilm, 24-hour peptide incubation, crystal violet OD 595 nm

Sequence | Biofilm prevention (%) ([1]; peptide 100 ng/ml) | Biofilm prevention (%) ([2]; peptide 100 ng/ml) | Detachment (%) (100 ng/ml) [3] | Detachment (%) (100 ng/ml) [4] | Detachment (%) (100 ng/ml) [5] | Biofilm prevention (%) [6] | Biofilm prevention (%) ([7]; peptide 100 ng/ml) | Biofilm prevention (%) ([7]; peptide 10 ng/ml) | Detachment (%) (100 ng/ml) [8] | Biofilm prevention (%) ([2]; peptide 10 ng/ml) | Biofilm prevention (%) ([1]; peptide 10 ng/ml) | microorganism detachment [9, 10] | microorganism detachment ([9]; 2-hour biofilm, 24-hour peptide incubation, crystal violet OD 595 nm) | microorganism detachment ([9]; 2-hour biofilm, overnight peptide incubation) | microorganism detachment ([9]; overnight biofilm, overnight peptide incubation)
CKVNSFDYDWYNVC (disulfide 1-14 (inferred)) [MeleagZ-cyc] | 30% | 82% | 62% | 65% | 80% | 73% | 95% | – | – | – | – | – | – | – | –
CNVHSFDYDWYNVC (disulfide 1-14 (inferred)) [CanisZ-cyc] | 80% | 95% | 45% | 72% | – | 75% | – | 60% | 73% | – | – | – | – | – | –
CRINSFDYDWYNVC (disulfide 1-14 (inferred)) [TetraoZ-cyc] | 25% | 45% | 55% | – | 43% | 52% | – | 70% | – | – | – | – | – | – | –
CRVESFDFDWYNIC (disulfide 1-14 (inferred)) [SalmoZ-cyc] | 55% | – | 73% | 80% | 75% | 80% | 95% | – | – | 90% | – | – | – | – | –
CRVESFNYDWYNVC (disulfide 1-14 (inferred)) [NilotiZ-cyc] | 30% | 90% | 65% | 40% | 65% | 63% | 87% | – | – | – | – | – | – | – | –
CSAPYNFNFYSNWC (disulfide 1-14 (inferred)) [EchoZ-cyc] | – | 90% | – | 65% | 35% | 85% | 80% | – | 60% | – | 80% | – | – | – | –
CSELSSFNFDWYNVC (disulfide 1-15 (inferred)) [CionaZ-S-cyc] | 68% | 75% | 42% | 78% | – | 90% | 52% | – | 80% | – | – | – | – | – | –
CSRYSSFDYDWYNVC (disulfide 1-15 (inferred)) [XenoZ-S-cyc] | 75% | – | 50% | 30% | – | 65% | 95% | – | 49% | 57% | – | – | – | – | –
CSVPFDYNLYSNWC [PhyscoZ-cyc] (also: cyclised) | – | 95% | – | 75% | 70% | 65% | – | – | 50% | – | 62% | far greater microorganism detachment than in the P.a. control | – | – | –
CSVPFDYNLYSNWC [SelagZ-cyc] (disulfide 1-14 (inferred)) | – | 88% | – | 67% | 35% | 88% | 80% | – | 50% | – | 80% | – | – | – | –
CSVPYDYNWYSNWC (disulfide 1-14 (inferred)) [Eqt2Z-cyc] | – | – | – | – | – | – | – | – | – | – | – | far greater microorganism detachment than in the P.a. control or negative control | far greater microorganism detachment than in the P.a. control or negative control | far greater microorganism detachment than in the P.a. control or negative control | far greater microorganism detachment than in the P.a. control
CTVHSFDYDWYNVC (disulfide 1-14 (inferred)) [CapraZ-cyc] | 25% | 68% | 60% | 65% | 55% | 42% | 90% | – | – | – | – | – | – | – | –
CTVNSFDYDWYNVC (disulfide 1-14 (inferred)) [AnoliZ-cyc] | 55% | 95% | 72% | 90% | 72% | 75% | – | 92% | – | – | – | – | – | – | –
